Source: the kinase profiling compilation of Christmann-Franck et al. (2016)

Legend:
Assay in all cases: radiometric filter-binding kinase assay, Kinase HotSpot
Conditions in all cases: compound 0.5 µM; ATP 10 µM
ERBB2 (human) = ERBB2 (human) (UniProt P04626)
CSNK1D (human) = CSNK1D (human) (UniProt P48730)
AURKC (human) = AURKC (human) (UniProt Q9UQB9)
STK11 (human) = STK11 (human) (UniProt Q15831)
TNK2 (human) = TNK2 (human) (UniProt Q07912)
RET (human) = RET (human) (UniProt P07949)
CLK3 (human) = CLK3 (human) (UniProt P49761)
Sequence of CLK3 (human) (P49761 whole entry, looked up): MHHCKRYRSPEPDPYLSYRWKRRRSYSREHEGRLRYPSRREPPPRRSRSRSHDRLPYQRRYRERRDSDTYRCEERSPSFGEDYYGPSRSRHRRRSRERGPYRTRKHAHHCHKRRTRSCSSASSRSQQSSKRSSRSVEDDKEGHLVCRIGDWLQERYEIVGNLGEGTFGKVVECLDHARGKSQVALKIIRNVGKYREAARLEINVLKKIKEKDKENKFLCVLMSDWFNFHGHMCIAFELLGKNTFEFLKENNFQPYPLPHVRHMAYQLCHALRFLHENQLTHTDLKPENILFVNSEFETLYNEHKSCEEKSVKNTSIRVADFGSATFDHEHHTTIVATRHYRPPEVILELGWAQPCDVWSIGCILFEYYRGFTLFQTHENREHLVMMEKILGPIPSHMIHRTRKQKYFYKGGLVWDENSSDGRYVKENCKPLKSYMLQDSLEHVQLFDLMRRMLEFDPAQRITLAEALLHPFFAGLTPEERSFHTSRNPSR

KDR (human) = KDR (human) (UniProt P35968)
CDK1 CCNA2 (human) = CDK1 CCNA2 (human) (UniProt P06493+P20248)
MAP3K2 (human) = MAP3K2 (human) (UniProt Q9Y2U5)
CDK4 CCND3 (human) = CDK4 CCND3 (human) (UniProt P30281+P11802)
Sequence of CDK4 CCND3 (human) (P11802 whole entry, looked up): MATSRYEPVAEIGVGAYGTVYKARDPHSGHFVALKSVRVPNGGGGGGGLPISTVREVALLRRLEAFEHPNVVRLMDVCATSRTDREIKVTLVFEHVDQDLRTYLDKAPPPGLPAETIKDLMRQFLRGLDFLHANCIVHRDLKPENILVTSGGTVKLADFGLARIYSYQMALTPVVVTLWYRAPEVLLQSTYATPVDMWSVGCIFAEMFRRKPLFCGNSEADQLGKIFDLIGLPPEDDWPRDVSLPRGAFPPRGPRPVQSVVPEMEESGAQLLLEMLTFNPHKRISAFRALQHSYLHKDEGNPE
Sequence of CDK4 CCND3 (human) (P30281 whole entry, looked up): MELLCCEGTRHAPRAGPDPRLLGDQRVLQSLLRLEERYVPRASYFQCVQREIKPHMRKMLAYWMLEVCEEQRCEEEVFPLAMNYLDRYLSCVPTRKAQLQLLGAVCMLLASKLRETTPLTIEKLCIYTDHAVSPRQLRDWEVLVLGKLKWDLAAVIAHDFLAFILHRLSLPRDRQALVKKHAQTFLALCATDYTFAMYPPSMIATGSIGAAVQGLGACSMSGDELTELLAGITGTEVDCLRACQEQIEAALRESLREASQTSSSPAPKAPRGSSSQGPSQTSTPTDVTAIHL

MAPK14 (human) = MAPK14 (human) (UniProt Q16539)
Sequence of MAPK14 (human) (Q16539 whole entry, looked up): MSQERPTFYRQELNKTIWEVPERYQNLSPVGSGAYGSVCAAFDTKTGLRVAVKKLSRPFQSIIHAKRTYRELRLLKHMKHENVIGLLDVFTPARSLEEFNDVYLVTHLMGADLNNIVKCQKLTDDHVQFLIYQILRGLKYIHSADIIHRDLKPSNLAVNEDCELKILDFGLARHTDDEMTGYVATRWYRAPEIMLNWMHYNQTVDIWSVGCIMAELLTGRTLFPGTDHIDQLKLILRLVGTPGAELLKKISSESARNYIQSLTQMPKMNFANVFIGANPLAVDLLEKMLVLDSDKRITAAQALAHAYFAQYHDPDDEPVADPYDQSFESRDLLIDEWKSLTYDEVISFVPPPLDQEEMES

FGR (human) = FGR (human) (UniProt P09769)
TEC (human) = TEC (human) (UniProt P42680)
Sequence of TEC (human) (P42680 whole entry, looked up): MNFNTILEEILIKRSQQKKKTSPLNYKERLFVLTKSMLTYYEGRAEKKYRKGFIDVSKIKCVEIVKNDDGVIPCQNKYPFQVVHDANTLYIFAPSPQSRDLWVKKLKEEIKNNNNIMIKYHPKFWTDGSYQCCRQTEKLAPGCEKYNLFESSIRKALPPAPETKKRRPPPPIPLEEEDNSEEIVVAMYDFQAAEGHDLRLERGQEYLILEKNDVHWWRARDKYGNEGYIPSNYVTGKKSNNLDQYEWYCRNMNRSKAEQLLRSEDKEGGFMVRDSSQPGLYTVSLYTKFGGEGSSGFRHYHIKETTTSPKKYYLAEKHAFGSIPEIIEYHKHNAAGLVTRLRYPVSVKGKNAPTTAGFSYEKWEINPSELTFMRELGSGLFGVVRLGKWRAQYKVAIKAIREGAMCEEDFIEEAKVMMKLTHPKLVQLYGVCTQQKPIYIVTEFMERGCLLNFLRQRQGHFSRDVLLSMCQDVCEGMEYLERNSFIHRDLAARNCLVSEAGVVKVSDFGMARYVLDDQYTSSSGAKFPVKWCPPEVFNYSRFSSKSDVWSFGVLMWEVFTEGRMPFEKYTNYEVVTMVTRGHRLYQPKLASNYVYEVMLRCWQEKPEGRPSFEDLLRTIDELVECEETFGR

NEK11 (human) = NEK11 (human) (UniProt Q8NG66)
KIT (human) = KIT (human) (UniProt P10721)
MERTK (human) = MERTK (human) (UniProt Q12866)
Sequence of MERTK (human) (Q12866 whole entry, looked up): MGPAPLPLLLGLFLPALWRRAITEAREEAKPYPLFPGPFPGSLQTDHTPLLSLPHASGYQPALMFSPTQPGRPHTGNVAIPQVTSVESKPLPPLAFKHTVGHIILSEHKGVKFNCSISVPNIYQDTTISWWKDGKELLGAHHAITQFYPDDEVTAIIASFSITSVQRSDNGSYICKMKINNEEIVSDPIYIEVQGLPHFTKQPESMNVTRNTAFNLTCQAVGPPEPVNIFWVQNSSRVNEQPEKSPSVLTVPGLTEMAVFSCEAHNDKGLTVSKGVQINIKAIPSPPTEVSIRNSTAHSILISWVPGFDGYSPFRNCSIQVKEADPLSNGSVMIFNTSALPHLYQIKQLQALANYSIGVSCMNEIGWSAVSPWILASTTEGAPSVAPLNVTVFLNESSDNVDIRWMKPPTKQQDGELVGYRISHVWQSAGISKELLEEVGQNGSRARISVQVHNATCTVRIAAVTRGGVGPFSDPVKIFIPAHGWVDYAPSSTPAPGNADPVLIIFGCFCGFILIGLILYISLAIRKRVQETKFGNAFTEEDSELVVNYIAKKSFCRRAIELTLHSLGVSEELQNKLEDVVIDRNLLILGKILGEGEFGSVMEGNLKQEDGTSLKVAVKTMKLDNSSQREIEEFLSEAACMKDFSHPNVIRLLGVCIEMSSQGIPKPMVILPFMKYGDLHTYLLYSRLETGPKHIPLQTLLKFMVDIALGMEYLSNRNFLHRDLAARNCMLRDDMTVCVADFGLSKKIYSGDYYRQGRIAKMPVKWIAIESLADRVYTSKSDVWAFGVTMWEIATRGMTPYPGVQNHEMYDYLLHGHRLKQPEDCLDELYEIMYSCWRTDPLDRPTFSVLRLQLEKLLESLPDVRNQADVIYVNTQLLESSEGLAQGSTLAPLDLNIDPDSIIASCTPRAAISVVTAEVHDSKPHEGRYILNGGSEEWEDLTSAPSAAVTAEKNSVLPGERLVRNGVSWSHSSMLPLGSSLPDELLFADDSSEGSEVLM

PDPK1 (human) = PDPK1 (human) (UniProt O15530)
CDK5 CDK5R1 p25 (human) = CDK5 CDK5R1 p25 (human) (UniProt Q00535+Q15078)
RPS6KA5 KD2 (human) = RPS6KA5 KD2 (human) (UniProt O75582)
DDR2 (human) = DDR2 (human) (UniProt Q16832)
TSSK1B (human) = TSSK1B (human) (UniProt Q9BXA7)
Sequence of TSSK1B (human) (Q9BXA7 whole entry, looked up): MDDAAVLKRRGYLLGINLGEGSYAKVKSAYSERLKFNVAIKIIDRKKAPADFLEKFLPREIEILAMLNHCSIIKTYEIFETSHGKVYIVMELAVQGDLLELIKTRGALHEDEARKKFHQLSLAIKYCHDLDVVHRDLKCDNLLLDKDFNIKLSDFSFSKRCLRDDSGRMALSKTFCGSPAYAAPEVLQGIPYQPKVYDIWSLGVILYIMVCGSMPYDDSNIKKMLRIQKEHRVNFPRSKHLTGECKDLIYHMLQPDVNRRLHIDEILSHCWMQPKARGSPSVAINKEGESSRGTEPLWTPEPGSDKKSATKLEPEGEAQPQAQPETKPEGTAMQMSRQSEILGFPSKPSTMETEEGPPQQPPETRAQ

VRK1 (human) = VRK1 (human) (UniProt Q99986)
Sequence of VRK1 (human) (Q99986 whole entry, looked up): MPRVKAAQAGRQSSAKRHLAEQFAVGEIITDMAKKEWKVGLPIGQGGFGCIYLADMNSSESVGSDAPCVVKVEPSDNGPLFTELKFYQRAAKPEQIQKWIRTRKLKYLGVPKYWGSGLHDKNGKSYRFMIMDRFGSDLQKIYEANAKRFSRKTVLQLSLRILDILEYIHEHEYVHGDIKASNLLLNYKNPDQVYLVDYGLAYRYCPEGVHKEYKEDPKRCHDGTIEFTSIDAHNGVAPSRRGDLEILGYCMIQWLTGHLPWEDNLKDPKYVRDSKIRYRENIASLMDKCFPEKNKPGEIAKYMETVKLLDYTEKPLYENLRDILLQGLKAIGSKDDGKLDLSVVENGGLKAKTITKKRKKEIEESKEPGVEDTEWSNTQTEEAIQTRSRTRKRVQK

MAPK1 (human) = MAPK1 (human) (UniProt P28482)
DAPK2 (human) = DAPK2 (human) (UniProt Q9UIK4)
ACVR1B (human) = ACVR1B (human) (UniProt P36896)
FES (human) = FES (human) (UniProt P07332)
ERBB4 (human) = ERBB4 (human) (UniProt Q15303)
RAF1 (human) = RAF1 (human) (UniProt P04049)
MAP3K7 TAB1 (human) = MAP3K7 TAB1 (human) (UniProt O43318+Q15750)
CDK6 CCND1 (human) = CDK6 CCND1 (human) (UniProt Q00534+P24385)
RPS6KB1 (human) = RPS6KB1 (human) (UniProt P23443)
WEE1 (human) = WEE1 (human) (UniProt P30291)
PKN2 (human) = PKN2 (human) (UniProt Q16513)
PHKG2 (human) = PHKG2 (human) (UniProt P15735)
PAK3 (human) = PAK3 (human) (UniProt O75914)
AKT2 (human) = AKT2 (human) (UniProt P31751)
PRKACG (human) = PRKACG (human) (UniProt P22612)
PBK (human) = PBK (human) (UniProt Q96KB5)
EPHA4 (human) = EPHA4 (human) (UniProt P54764)
TAOK1 (human) = TAOK1 (human) (UniProt Q7L7X3)
TAOK2 (human) = TAOK2 (human) (UniProt Q9UL54)

Sequence of RET (human) (P07949 whole entry, looked up): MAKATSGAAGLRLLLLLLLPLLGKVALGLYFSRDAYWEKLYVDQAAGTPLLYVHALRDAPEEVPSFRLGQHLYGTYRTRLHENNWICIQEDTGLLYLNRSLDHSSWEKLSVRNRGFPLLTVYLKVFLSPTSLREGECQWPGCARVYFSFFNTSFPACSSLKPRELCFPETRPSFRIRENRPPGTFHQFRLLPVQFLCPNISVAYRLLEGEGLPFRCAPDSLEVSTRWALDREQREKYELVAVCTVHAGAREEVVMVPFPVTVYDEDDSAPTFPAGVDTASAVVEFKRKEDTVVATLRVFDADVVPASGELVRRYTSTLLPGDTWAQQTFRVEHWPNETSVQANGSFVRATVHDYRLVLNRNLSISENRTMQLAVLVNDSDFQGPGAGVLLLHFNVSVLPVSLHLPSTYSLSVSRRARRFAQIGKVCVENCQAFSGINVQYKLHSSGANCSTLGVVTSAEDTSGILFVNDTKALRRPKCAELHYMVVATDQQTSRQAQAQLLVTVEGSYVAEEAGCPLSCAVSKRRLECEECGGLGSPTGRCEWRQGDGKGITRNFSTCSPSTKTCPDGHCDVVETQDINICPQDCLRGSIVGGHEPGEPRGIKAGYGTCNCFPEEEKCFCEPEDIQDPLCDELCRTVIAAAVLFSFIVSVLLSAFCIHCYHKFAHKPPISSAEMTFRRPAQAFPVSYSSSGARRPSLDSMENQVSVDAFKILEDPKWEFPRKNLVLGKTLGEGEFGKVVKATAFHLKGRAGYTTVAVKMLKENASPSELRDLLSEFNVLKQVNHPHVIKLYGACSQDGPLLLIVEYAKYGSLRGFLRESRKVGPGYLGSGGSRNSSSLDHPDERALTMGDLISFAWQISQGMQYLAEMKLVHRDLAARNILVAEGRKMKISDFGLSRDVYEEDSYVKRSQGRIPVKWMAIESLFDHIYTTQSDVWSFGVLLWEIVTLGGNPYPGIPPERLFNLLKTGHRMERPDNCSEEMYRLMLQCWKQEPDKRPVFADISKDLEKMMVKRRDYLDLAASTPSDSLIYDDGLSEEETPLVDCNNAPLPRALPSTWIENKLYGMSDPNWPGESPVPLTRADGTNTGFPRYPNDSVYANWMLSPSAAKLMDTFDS

Which results are given for `CO[C@H]1CC2CC[C@@H](C)[C@@](O)(O2)C(=O)C(=O)N2CCCC[C@H]2C(=O)OC([C@H](C)C[C@@H]2CC[C@@H](O)[C@H](OC)C2)CC(=O)[C@H](C)/C=C(\C)[C@@H](O)[C@@H](OC)C(=O)[C@H](C)C[C@H](C)/C=C/C=C/C=C/1C` (stereo partly specified)?
residual activity (ERBB2 (human)): 97.3%; residual activity (CSNK1D (human)): 110%; residual activity (AURKC (human)): 95.6%; residual activity (STK11 (human)): 91.1%; residual activity (TNK2 (human)): 98.5%; residual activity (RET (human)): 98.7%; residual activity (CLK3 (human)): 94.4%; residual activity (KDR (human)): 98.1%; residual activity (CDK1 CCNA2 (human)): 91.9%; residual activity (MAP3K2 (human)): 94.8%; residual activity (CDK4 CCND3 (human)): 104%; residual activity (MAPK14 (human)): 99.1%; residual activity (FGR (human)): 94.5%; residual activity (TEC (human)): 138%; residual activity (NEK11 (human)): 73.6%; residual activity (KIT (human)): 95.7%; residual activity (MERTK (human)): 90.9%; residual activity (PDPK1 (human)): 92.6%; residual activity (CDK5 CDK5R1 p25 (human)): 96.3%; residual activity (RPS6KA5 KD2 (human)): 106%; residual activity (DDR2 (human)): 95.6%; residual activity (TSSK1B (human)): 103%; residual activity (VRK1 (human)): 108%; residual activity (MAPK1 (human)): 101%; residual activity (DAPK2 (human)): 112%; residual activity (ACVR1B (human)): 97.6%; residual activity (FES (human)): 108%; residual activity (ERBB4 (human)): 88.7%; residual activity (RAF1 (human)): 97.2%; residual activity (MAP3K7 TAB1 (human)): 95.2%; residual activity (CDK6 CCND1 (human)): 99.8%; residual activity (RPS6KB1 (human)): 92.6%; residual activity (WEE1 (human)): 93.3%; residual activity (PKN2 (human)): 89.8%; residual activity (PHKG2 (human)): 108%; residual activity (PAK3 (human)): 102%; residual activity (AKT2 (human)): 96.1%; residual activity (PRKACG (human)): 113%; residual activity (PBK (human)): 103%; residual activity (EPHA4 (human)): 115%; residual activity (TAOK1 (human)): 102%; residual activity (TAOK2 (human)): 97.6%

Which residual activity (ERBB2 (human)) does the source give for `N#CC(C#N)=C(N)/C(C#N)=C/c1ccc(O)cc1` here?
The residual activity was 90.1%.

What about the residual activity (CSNK1D (human)) of the same molecule?
Its residual activity is 98.7%.

What about the residual activity (AURKC (human)) of the same molecule?
The residual activity was 101%.

What about the residual activity (STK11 (human)) of the same molecule?
Its residual activity is 96.5%.

What about the residual activity (TNK2 (human)) of the same molecule?
Its residual activity is 98.1%.

And the residual activity (RET (human))?
Its residual activity is 110%.

What about the residual activity (CLK3 (human)) of the same molecule?
The residual activity was 100%.

What about the residual activity (KDR (human)) of the same molecule?
The residual activity was 97.2%.

What about the residual activity (CDK1 CCNA2 (human)) of the same molecule?
Its residual activity is 90.6%.

What about the residual activity (MAP3K2 (human)) of the same molecule?
The residual activity was 102%.

What about the residual activity (CDK4 CCND3 (human)) of the same molecule?
Its residual activity is 97.1%.

What about the residual activity (MAPK14 (human)) of the same molecule?
The residual activity was 104%.

What about the residual activity (FGR (human)) of the same molecule?
The residual activity was 98.7%.

What about the residual activity (TEC (human)) of the same molecule?
Its residual activity is 94.7%.

And the residual activity (NEK11 (human))?
Its residual activity is 97.2%.

And the residual activity (KIT (human))?
Its residual activity is 92.4%.

And the residual activity (MERTK (human))?
Its residual activity is 93.5%.

What about the residual activity (PDPK1 (human)) of the same molecule?
The residual activity was 99.4%.

And the residual activity (CDK5 CDK5R1 p25 (human))?
Its residual activity is 97.6%.

What about the residual activity (RPS6KA5 KD2 (human)) of the same molecule?
The residual activity was 96.7%.

And the residual activity (DDR2 (human))?
The residual activity was 97.6%.

And the residual activity (TSSK1B (human))?
The residual activity was 111%.

What about the residual activity (VRK1 (human)) of the same molecule?
The residual activity was 103%.

What about the residual activity (MAPK1 (human)) of the same molecule?
Its residual activity is 101%.

And the residual activity (DAPK2 (human))?
Its residual activity is 95.7%.

And the residual activity (ACVR1B (human))?
The residual activity was 101%.

And the residual activity (FES (human))?
Its residual activity is 101%.

And the residual activity (ERBB4 (human))?
The residual activity was 92.7%.

What about the residual activity (RAF1 (human)) of the same molecule?
The residual activity was 86.3%.

What about the residual activity (MAP3K7 TAB1 (human)) of the same molecule?
Its residual activity is 94.8%.

What about the residual activity (CDK6 CCND1 (human)) of the same molecule?
Its residual activity is 91.3%.

What about the residual activity (RPS6KB1 (human)) of the same molecule?
Its residual activity is 89.5%.

And the residual activity (WEE1 (human))?
Its residual activity is 93.7%.

What about the residual activity (PKN2 (human)) of the same molecule?
The residual activity was 96.9%.

And the residual activity (PHKG2 (human))?
The residual activity was 96.7%.

What about the residual activity (PAK3 (human)) of the same molecule?
Its residual activity is 98.4%.

And the residual activity (AKT2 (human))?
The residual activity was 92.8%.

What about the residual activity (PRKACG (human)) of the same molecule?
Its residual activity is 96.8%.

What about the residual activity (PBK (human)) of the same molecule?
Its residual activity is 96.4%.

And the residual activity (EPHA4 (human))?
Its residual activity is 96%.

What about the residual activity (TAOK1 (human)) of the same molecule?
Its residual activity is 93.2%.

And the residual activity (TAOK2 (human))?
The residual activity was 97.3%.

`CCOC(=O)c1c(C)[nH]c(/C=C2\C(=O)Nc3ccccc32)c1C` was tested. Which residual activity (ERBB2 (human)) did it give?
The residual activity was 101%.

And the residual activity (CSNK1D (human))?
Its residual activity is 96.4%.

And the residual activity (AURKC (human))?
The residual activity was 89.1%.

And the residual activity (STK11 (human))?
Its residual activity is 85.2%.

What about the residual activity (TNK2 (human)) of the same molecule?
The residual activity was 92.7%.

And the residual activity (RET (human))?
The residual activity was 40.8%.

What about the residual activity (CLK3 (human)) of the same molecule?
Its residual activity is 100%.

What about the residual activity (KDR (human)) of the same molecule?
The residual activity was 93.2%.

And the residual activity (CDK1 CCNA2 (human))?
Its residual activity is 96.3%.

And the residual activity (MAP3K2 (human))?
The residual activity was 108%.

And the residual activity (CDK4 CCND3 (human))?
The residual activity was 106%.

What about the residual activity (MAPK14 (human)) of the same molecule?
Its residual activity is 134%.

What about the residual activity (FGR (human)) of the same molecule?
The residual activity was 79.3%.

And the residual activity (TEC (human))?
The residual activity was 141%.

What about the residual activity (NEK11 (human)) of the same molecule?
Its residual activity is 96.6%.

What about the residual activity (KIT (human)) of the same molecule?
Its residual activity is 46.3%.

And the residual activity (MERTK (human))?
The residual activity was 69.3%.

What about the residual activity (PDPK1 (human)) of the same molecule?
Its residual activity is 92.5%.

And the residual activity (CDK5 CDK5R1 p25 (human))?
Its residual activity is 92.7%.

And the residual activity (RPS6KA5 KD2 (human))?
Its residual activity is 91.8%.

And the residual activity (DDR2 (human))?
Its residual activity is 98%.

What about the residual activity (TSSK1B (human)) of the same molecule?
Its residual activity is 91.2%.

And the residual activity (VRK1 (human))?
Its residual activity is 104%.

And the residual activity (MAPK1 (human))?
Its residual activity is 96.4%.

What about the residual activity (DAPK2 (human)) of the same molecule?
The residual activity was 96.3%.

What about the residual activity (ACVR1B (human)) of the same molecule?
Its residual activity is 96.6%.

And the residual activity (FES (human))?
The residual activity was 99.3%.

And the residual activity (ERBB4 (human))?
Its residual activity is 71.2%.

And the residual activity (RAF1 (human))?
The residual activity was 89.6%.

What about the residual activity (MAP3K7 TAB1 (human)) of the same molecule?
The residual activity was 85.8%.

And the residual activity (CDK6 CCND1 (human))?
The residual activity was 89.7%.

And the residual activity (RPS6KB1 (human))?
Its residual activity is 85.7%.

What about the residual activity (WEE1 (human)) of the same molecule?
The residual activity was 91.2%.

And the residual activity (PKN2 (human))?
The residual activity was 92%.

What about the residual activity (PHKG2 (human)) of the same molecule?
The residual activity was 96.2%.

And the residual activity (PAK3 (human))?
The residual activity was 99.1%.

And the residual activity (AKT2 (human))?
Its residual activity is 87.6%.

And the residual activity (PRKACG (human))?
The residual activity was 88.4%.

What about the residual activity (PBK (human)) of the same molecule?
Its residual activity is 85%.

What about the residual activity (EPHA4 (human)) of the same molecule?
Its residual activity is 80.3%.

And the residual activity (TAOK1 (human))?
Its residual activity is 100%.

What about the residual activity (TAOK2 (human)) of the same molecule?
The residual activity was 105%.
